Data: US6197806A, “Eliminating agent for activated oxygen and free radicals” (Nippon Zoki Pharmaceutical Co., Ltd., priority 1995, dated 2001)

Test: Measurement of ability for eliminating hydroxyl radicals (ESR spin trapping method, Fenton's reaction, DMPO)
Settings: 1 mM of DMPO; DMPO-OH ESR signal; phosphate buffer pH 7.8; room temperature; read-out: Concentration of Test Substance at 50% Inhibition of Signal Intensity, IC50
Protocol: Ability of the test substances for eliminating hydroxyl radicals was measured using an ESR spin trapping method which is frequently used for the detection of hydroxyl radicals. Generation of hydroxyl radicals was carried out using a Fenton's reaction in which hydroxyl radicals are generated by a reaction of divalent iron chelated with DTPA (diethylenediamine-pentaacetic acid) with hydrogen peroxide. […] When a test substance having an eliminating action for hydroxyl radicals is present in this reaction system, the above characteristic signal is inhibited and, therefore, the ability for eliminating hydroxyl radicals can be measured using that signal inhibition as an index.
Thus, a solution of a mixture of 1 mM of ferrous sulfate and DTPA dissolved in 100 mM of a phosphate buffer (pH 7.8) was charged in a test tube. Then, 50 μl of a sample solution containing the test substance or hydantoin compound of the invention and 20 μl of 1 mM or 2 mM of DMPO were added. Finally, 75 μl of 1 mM of hydrogen peroxide solution was added to the resulting mixture to initiate the reaction. Hydrogen peroxide solution was prepared immediately before each of the experiments and the reaction was conducted at room temperature.
An ESR spectrum in this reaction system was measured by conventional means. […]

With `CN1C(=O)NC(=O)C1O` (stereo not shown) [Compound 21, 5-Hydroxy-1-methylhydantoin] the IC50 was 1 mM.
